Measurements taken from ChEMBL document CHEMBL2073754, “Cotransport of reduced glutathione with bile salts by MRP4 (ABCC4) localized to the basolateral hepatocyte membrane” (Hepatology, 2003).

Legend:
Assay type in all cases: functional, cell membranes, Membrane vesicle
Design in all cases: scale not given: the % may be the effect or the level left
MRP4 (ABCC4) [1] = biological target: T1, MRP4 (ABCC4) (Homo sapiens, UniProt O15439); assay: TP_TRANSPORTER: inhibition of Taurocholate uptake in the presence of Glycocholate at a concentration of 20uM in membrane vesicles from MRP4-expressing V79 cells; conditions: hamster, probe taurocholate, read-out: Activity
T1 sequence (O15439 whole entry): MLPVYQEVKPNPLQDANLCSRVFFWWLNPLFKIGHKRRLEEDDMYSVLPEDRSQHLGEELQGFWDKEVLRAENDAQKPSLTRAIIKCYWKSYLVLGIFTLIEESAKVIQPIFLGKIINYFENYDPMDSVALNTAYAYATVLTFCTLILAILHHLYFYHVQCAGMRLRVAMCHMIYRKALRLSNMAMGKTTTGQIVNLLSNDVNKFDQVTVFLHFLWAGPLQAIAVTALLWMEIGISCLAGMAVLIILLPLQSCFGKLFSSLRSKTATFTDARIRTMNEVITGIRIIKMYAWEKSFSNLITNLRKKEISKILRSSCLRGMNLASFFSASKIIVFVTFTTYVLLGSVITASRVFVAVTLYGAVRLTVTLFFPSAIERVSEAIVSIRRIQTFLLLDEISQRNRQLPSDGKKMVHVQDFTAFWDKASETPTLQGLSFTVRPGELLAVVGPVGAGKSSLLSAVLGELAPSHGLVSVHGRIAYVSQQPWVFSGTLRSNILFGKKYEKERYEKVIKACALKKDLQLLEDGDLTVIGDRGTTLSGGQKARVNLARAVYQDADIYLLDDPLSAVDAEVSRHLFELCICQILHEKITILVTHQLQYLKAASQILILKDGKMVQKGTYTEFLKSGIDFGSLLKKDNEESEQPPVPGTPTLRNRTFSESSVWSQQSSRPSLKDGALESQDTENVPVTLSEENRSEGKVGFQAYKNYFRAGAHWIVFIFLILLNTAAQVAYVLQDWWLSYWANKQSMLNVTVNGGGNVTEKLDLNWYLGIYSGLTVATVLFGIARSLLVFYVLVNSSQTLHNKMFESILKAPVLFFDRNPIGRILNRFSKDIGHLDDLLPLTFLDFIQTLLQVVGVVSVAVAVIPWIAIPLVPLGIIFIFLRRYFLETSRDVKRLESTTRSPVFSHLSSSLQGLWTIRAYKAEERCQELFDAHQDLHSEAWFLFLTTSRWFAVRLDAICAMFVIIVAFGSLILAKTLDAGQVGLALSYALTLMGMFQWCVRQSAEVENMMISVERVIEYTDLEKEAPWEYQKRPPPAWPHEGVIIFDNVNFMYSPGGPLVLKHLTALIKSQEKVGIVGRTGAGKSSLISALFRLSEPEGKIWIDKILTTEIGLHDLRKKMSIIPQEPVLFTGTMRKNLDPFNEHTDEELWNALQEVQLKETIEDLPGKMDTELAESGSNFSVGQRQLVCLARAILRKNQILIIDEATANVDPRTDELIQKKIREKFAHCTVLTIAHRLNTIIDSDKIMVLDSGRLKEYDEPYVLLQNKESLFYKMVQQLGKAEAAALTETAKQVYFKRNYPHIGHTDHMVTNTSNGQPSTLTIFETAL

MRP4 (ABCC4) [2] = biological target: T1, MRP4 (ABCC4); assay: TP_TRANSPORTER: inhibition of Taurocholate uptake in the presence of Tauroursodeoxycholate at a concentration of 20uM in membrane vesicles from MRP4-expressing V79 cells; conditions: hamster, probe taurocholate, read-out: Activity
MRP4 (ABCC4) [3] = biological target: T1, MRP4 (ABCC4); assay: TP_TRANSPORTER: inhibition of Taurocholate uptake in the presence of Methotrexate at a concentration of 20uM in membrane vesicles from MRP4-expressing V79 cells; conditions: hamster, probe taurocholate, read-out: Activity
MRP4 (ABCC4) [4] = biological target: T1, MRP4 (ABCC4); assay: TP_TRANSPORTER: inhibition of Taurocholate uptake in the presence of Dipyridamole at a concentration of 20uM in membrane vesicles from MRP4-expressing V79 cells; conditions: hamster, probe taurocholate, read-out: Activity
[5] = biological target: T2, ATP-binding cassette sub-family C member 4 (Homo sapiens, UniProt O15439); assay: TP_TRANSPORTER: inhibition of Taurocholate uptake in the presence of MK-571 at a concentration of 20uM in membrane vesicles from MRP4-expressing V79 cells; conditions: hamster, v79, 20 µM
T2 sequence (O15439 whole entry): T1 sequence (O15439 whole entry)

MRP4 (ABCC4) [6] = biological target: T1, MRP4 (ABCC4); assay: TP_TRANSPORTER: inhibition of Taurocholate uptake in the presence of Folate at a concentration of 20uM in membrane vesicles from MRP4-expressing V79 cells; conditions: hamster, probe taurocholate, read-out: Activity
MRP4 (ABCC4) [7] = biological target: T1, MRP4 (ABCC4); assay: TP_TRANSPORTER: inhibition of Taurocholate uptake in the presence of Dehydroepiandrosterone-3-sulfate at a concentration of 5uM in membrane vesicles from MRP4-expressing V79 cells; conditions: hamster, probe taurocholate, read-out: Activity
[8] = biological target: T2, ATP-binding cassette sub-family C member 4; assay: TP_TRANSPORTER: inhibition of Taurocholate uptake in the presence of Lithocholate at a concentration of 20uM in membrane vesicles from MRP4-expressing V79 cells; conditions: hamster, v79, 20 µM
MRP4 (ABCC4) [9] = biological target: T1, MRP4 (ABCC4); assay: TP_TRANSPORTER: inhibition of Taurocholate uptake by Taurochenodeoxycholate at a concentration of 20uM in membrane vesicles from MRP4-expressing V79 cells; conditions: hamster, probe taurocholate, read-out: Activity
MRP4 (ABCC4) [10] = biological target: T1, MRP4 (ABCC4); assay: TP_TRANSPORTER: inhibition of Taurocholate uptake in the presence of Ursodeoxycholate at a concentration of 20uM in membrane vesicles from MRP4-expressing V79 cells; conditions: hamster, probe taurocholate, read-out: Activity
MRP4 (ABCC4) [11] = biological target: T1, MRP4 (ABCC4); assay: TP_TRANSPORTER: inhibition of Taurocholate uptake in the presence of Lithoglycocholate at a concentration of 20uM in membrane vesicles from MRP4-expressing V79 cells; conditions: hamster, probe taurocholate, read-out: Activity
[12] = biological target: T2, ATP-binding cassette sub-family C member 4; assay: TP_TRANSPORTER: inhibition of Taurocholate uptake in the presence of Probenecid at a concentration of 20uM in membrane vesicles from MRP4-expressing V79 cells; conditions: hamster, v79, 20 µM

SMILES: C[C@H](CCC(=O)NCC(=O)O)[C@H]1CC[C@H]2[C@@H]3[C@H](O)C[C@@H]4C[C@H](O)CC[C@]4(C)[C@H]3C[C@H](O)[C@]12C [GLYCOCHOLIC ACID]
- activity at 20 µM (MRP4 (ABCC4) [1]): 45%

SMILES: C[C@H](CCC(=O)NCCS(=O)(=O)O)[C@H]1CC[C@H]2[C@@H]3[C@@H](O)C[C@@H]4C[C@H](O)CC[C@]4(C)[C@H]3CC[C@]12C [TAURURSODIOL]
- activity at 20 µM (MRP4 (ABCC4) [2]): 26%

SMILES: CN(Cc1cnc2nc(N)nc(N)c2n1)c1ccc(C(=O)N[C@@H](CCC(=O)O)C(=O)O)cc1 [METHOTREXATE]
- activity at 20 µM (MRP4 (ABCC4) [3]): 39%

SMILES: OCCN(CCO)c1nc(N2CCCCC2)c2nc(N(CCO)CCO)nc(N3CCCCC3)c2n1 [DIPYRIDAMOLE]
- activity at 20 µM (MRP4 (ABCC4) [4]): 32%

SMILES: CN(C)C(=O)CCSC(SCCC(=O)O)c1cccc(/C=C/c2ccc3ccc(Cl)cc3n2)c1 (configuration not stated) [MK-571]
- Activity [5]: 9%

SMILES: Nc1nc2ncc(CNc3ccc(C(=O)N[C@@H](CCC(=O)O)C(=O)O)cc3)nc2c(=O)[nH]1 [FOLIC ACID]
- activity at 20 µM (MRP4 (ABCC4) [6]): 63%

SMILES: C[C@]12CC[C@H](OS(=O)(=O)O)CC1=CC[C@@H]1[C@@H]2CC[C@]2(C)C(=O)CC[C@@H]12 [PRASTERONE SULFURIC ACID]
- activity at 5 µM (MRP4 (ABCC4) [7]): 34%

SMILES: C[C@H](CCC(=O)O)[C@H]1CC[C@H]2[C@@H]3CC[C@@H]4C[C@H](O)CC[C@]4(C)[C@H]3CC[C@]12C [LITHOCHOLIC ACID]
- Activity [8]: 68%

SMILES: C[C@H](CCC(=O)NCCS(=O)(=O)O)[C@H]1CC[C@H]2[C@@H]3[C@H](O)C[C@@H]4C[C@H](O)CC[C@]4(C)[C@H]3CC[C@]12C [TAUROCHENODEOXYCHOLATE]
- activity at 20 µM (MRP4 (ABCC4) [9]): 11%

SMILES: C[C@H](CCC(=O)O)[C@H]1CC[C@H]2[C@@H]3[C@@H](O)C[C@@H]4C[C@H](O)CC[C@]4(C)[C@H]3CC[C@]12C [URSODIOL]
- activity at 20 µM (MRP4 (ABCC4) [10]): 18%

SMILES: C[C@H](CCC(=O)NCC(=O)O)[C@H]1CC[C@H]2[C@@H]3CC[C@@H]4C[C@H](O)CC[C@]4(C)[C@H]3CC[C@]12C [LITHOGLYCOCHOLATE]
- activity at 20 µM (MRP4 (ABCC4) [11]): 9%

SMILES: CCCN(CCC)S(=O)(=O)c1ccc(C(=O)O)cc1 [PROBENECID]
- Activity [12]: 52%
